Results published in patent US20240051975A1 (TSINGHUA UNIVERSITY, priority 2020, published 2024).

test system: cell death induced by the NAMPT inhibitor FK866; assay: Protection against cell death induced by the NAMPT inhibitor FK866 (Celltiter-Glo, cellular ATP); format: cell-based; settings: AUC of dose-response curve (0.1-10 μM) relative to AUC of NAT; 10 nM FK866, 72 hours, cell viability by ATP
Experimental: In the latter cell-based assay, we determined the degree of protection of NAT and derivatives thereof against the NAMPT inhibitor FK866. […] After 72 hours, Celltiter-Glo (Promega) was used to detect cellular ATP levels to reflect cell viability and normalized to the DMSO group. A dose-response curve was drawn to evaluate the cytoprotective activity of individual compounds against FK866. Then the area under the dose-response curve (AUC, area under curve) of each compound was calculated and compared with the AUC of NAT, so that the obtained relative value quantitatively expressed the cytoprotective activity of each compound.

Row | SMILES | Relative cytoprotective activity
1 | COc1ccc(OCC(=O)Nc2ccc(O)cc2)c(C(C)(C)C)c1 [Compound 51] | 1.402
2 | CC(C)(C)c1cccc(C#N)c1OCC(=O)Nc1ccc(O)cc1 [Compound 21, 2-(2-(tert-butyl)-6-cyanophenoxy)-N-(4-hydroxyphenyl)acetamide] | 2.198
3 | CC(C)(C)c1cc(O)ccc1OCC(=O)Nc1ccc(O)cc1 [Compound 52] | 1.358
4 | CC(C)(C)c1cccc(OCC(=O)NCc2ccc(O)cc2)c1 [Compound 22, 2-(3-(tert-butyl)phenoxy)-N-(4-hydroxybenzyl)acetamide] | 0.1187
5 | CCc1ccc(OCC(=O)Nc2ccc(O)cc2)c(C(C)(C)C)c1 [Compound 54, 2-(2-(tert-butyl)-4-ethylphenoxy)-N-(4-hydroxyphenyl)acetamide] | 0.8554
6 | Cc1ccc(C(C)(C)C)c(OCC(=O)Nc2ccc(O)cc2)c1 [Compound 55, 2-(2-(tert-butyl)-5-methylphenoxy)-N-(4-hydroxyphenyl)acetamide] | 0.6623
7 | CC(C)(C)c1ccc(OCC(=O)Nc2ccc(O)cc2)cc1 [Compound 14, 2-(4-(tert-butyl)phenoxy)-N-(4-hydroxyphenyl)acetamide] | 0.01994
8 | CC(C)(C)c1cccc(OCC(=O)Nc2ccc(O)cc2)c1 [Compound 13, 2-(3-(tert-butyl)phenoxy)-N-(4-hydroxyphenyl)acetamide] | 0.2653
9 | Cc1cccc(C(C)(C)C)c1OCC(=O)Nc1ccc(O)cc1 [Compound 53, 2-(2-(tert-butyl)-6-methylphenoxy)-N-(4-hydroxyphenyl)acetamide] | 0.571
10 | Cc1ccccc1OCC(=O)Nc1ccc(O)cc1 [Compound 15, N-(4-hydroxyphenyl)-2-(o-tolyloxy)acetamide] | 0.4402
11 | CC(C)(C)c1cc(F)ccc1OCC(=O)Nc1ccc(O)cc1 [Compound 56, 2-(2-(tert-butyl)-4-fluorophenoxy)-N-(4-hydroxyphenyl)acetamide] | 0.9846
12 | CC(C)(C)c1cccc(Br)c1OCC(=O)Nc1ccc(O)cc1 [Compound 59, 2-(2-bromo-6-(tert-butyl)phenoxy)-N-(4-hydroxyphenyl)acetamide] | 0.5085

same assay, conditions: against FK866

Row | SMILES | cytoprotective activity (in words)
13 | CC(C)(C)c1cccc(C#N)c1OCC(=O)Nc1ccc(O)cc1 [Compound 21, 2-(2-(tert-butyl)-6-cyanophenoxy)-N-(4-hydroxyphenyl)acetamide] | significantly improved compared with NAT

molecular target: NAMPT (Homo sapiens, UniProt P43490); assay: NAMPT enzyme activity assay coupled with NMNAT1 and ADH (NADH fluorescence); settings: AUC of dose-response curve (0.1, 0.3, 1, 3, 10 μM) relative to AUC of NAT (NAT = 1); 1 μM NAMPT, 200 μM NAM
Sequence (P43490 whole entry, species assumed): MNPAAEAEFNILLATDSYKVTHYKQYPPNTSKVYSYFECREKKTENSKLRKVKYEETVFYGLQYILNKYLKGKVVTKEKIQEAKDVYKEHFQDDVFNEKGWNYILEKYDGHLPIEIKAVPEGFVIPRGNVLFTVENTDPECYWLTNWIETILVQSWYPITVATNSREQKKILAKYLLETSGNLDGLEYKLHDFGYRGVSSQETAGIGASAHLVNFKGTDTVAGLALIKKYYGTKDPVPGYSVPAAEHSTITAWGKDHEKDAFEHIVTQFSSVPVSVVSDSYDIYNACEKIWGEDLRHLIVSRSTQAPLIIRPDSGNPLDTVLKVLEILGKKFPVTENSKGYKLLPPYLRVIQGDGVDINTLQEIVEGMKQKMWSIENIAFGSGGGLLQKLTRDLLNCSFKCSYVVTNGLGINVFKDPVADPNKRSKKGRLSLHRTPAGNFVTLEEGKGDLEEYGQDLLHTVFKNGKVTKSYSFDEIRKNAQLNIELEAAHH
Experimental: The NAMPT enzyme activity was assayed by a method coupled with the three enzymes: NAMPT, NMNAT1 and alcohol dehydrogenase (ADH). NAMPT synthesizes NMN from NAM and PRPP, NMNAT1 synthesizes NAD from NMN produced in the first step, and ADH converts NAD into detectable fluorescent NADH. […] The reaction was initiated by adding 200 μM nicotinamide (NAM) and mixing gently. The enzyme activity of NAMPT was expressed as the concentration of NADH generated per minute (the molar value was equal to NAD). The relative enzyme activity of NAMPT in each compound-treated group was normalized by the value of the DMSO-treated group, and a dose-response curve was drawn to evaluate the effect of individual compounds on NAMPT enzyme activity. The area under the dose-response curve (AUC, area under curve) was then calculated for individual compound and compared to the AUC of NAT, so that the obtained relative value quantitative Eauc represented the enzyme activation activity of each compound, and the specific calculation formula was shown in FIG. 3.

Row | SMILES | Relative activation of NAMPT activity
14 | CCOC(=O)c1ccc(NC(=O)COc2ccccc2C(C)(C)C)cc1 [Compound 6, ethyl 4-(2-(2-(tert-butyl)phenoxy)acetamido) benzoate] | −0.1512
15 | CC(C)(C)c1cccc(OCC(=O)NCc2ccc(O)cc2)c1 [Compound 22, 2-(3-(tert-butyl)phenoxy)-N-(4-hydroxybenzyl)acetamide] | −0.2162
16 | CN(C)c1ccc(NC(=O)COc2ccccc2C(C)(C)C)cc1 [Compound 7, 2-(2-(tert-butyl)phenoxy)-N-(4-(dimethylamino)phenyl)acetamide] | −0.1777
17 | CC(C)(C)c1ccccc1OCC(=O)Nc1ccc(Oc2ccccc2)cc1 [Compound 11, 2-(2-(tert-butyl)phenoxy)-N-(4-phenoxyphenyl)acetamide] | −0.1409
18 | CC(C)(C)c1ccccc1OCC(=O)Nc1ccc(O)c(C(F)(F)F)c1 [Compound 39, 2-(2-(tert-butyl)phenoxy)-N-(4-hydroxyl-3-(trifluoromethyl)phenyl)acetamide] | −0.1435
19 | CC(C)(C)c1ccccc1OCC(=O)Nc1ccc(S(N)(=O)=O)cc1 [Compound 26, 2-(2-(tert-butyl)phenoxy)-N-(4-sulfamoylphenyl)acetamide] | −0.2346
20 | CC(C)(C)OC(=O)Nc1ccc(NC(=O)COc2ccccc2C(C)(C)C)cc1 [Compound 29, tert-butyl (4-(2-(2-(tert-butyl)phenoxy)acetamido)phenyl)carbamate] | −0.1978
21 | CC(C)(C)c1ccccc1OCC(=O)Nc1ccc(O)cc1O [Compound 48, 2-(2-(tert-butyl)phenoxy)-N-(2,4-dihydroxyphenyl)acetamide] | −0.1608
22 | CC(C)(C)c1ccccc1OCC(=O)Nc1ccc(O)cc1C(F)(F)F [Compound 38, 2-(2-(tert-butyl)phenoxy)-N-(4-hydroxy-2-(trifluoromethyl)phenyl)acetamide] | −0.12
23 | CC(C)(C)c1ccccc1OCC(=O)Nc1ccc(O)cc1C(=O)O [Compound 35, 2-(2-(2-(tert-butyl)phenoxy)acetamido)-5-hydroxybenzoic acid] | −0.0889
24 | CC(C)(C)c1ccccc1OCC(=O)Nc1ccc(O)cc1CO [Compound 50, 2-(2-(tert-butyl)phenoxy)-N-(4-hydroxyl-2-(hydroxymethyl)phenyl)acetamide] | −0.1356
25 | CC(C)(C)c1ccccc1OCC(=O)Nc1ccc(C(=O)O)cc1 [Compound 33, 4-(2-(2-(tert-butyl)phenoxy)acetamido)benzoic acid] | −0.1619
26 | COc1cc(NC(=O)COc2ccccc2C(C)(C)C)ccc1O [Compound 44, 2-(2-(tert-butyl)phenoxy)-N-(4-hydroxyl-3-methoxyphenyl)acetamide] | −0.1512
27 | CC(C)(C)c1ccccc1OCC(=O)Nc1cccc(O)c1 [Compound 3, 2-(2-(tert-butyl)phenoxy)-N-(3-hydroxyphenyl)acetamide] | −0.1895
28 | CC(C)(C)c1ccccc1OCC(=O)Nc1ccc(B(O)O)cc1 [Compound 27] | 0.1217
29 | CC(C)(C)c1ccccc1CNC(=O)Nc1ccc(O)cc1 [Compound 25, 1-(2-tert-butyl)benzyl-3-(4-hydroxyl)phenylurea] | −0.2226
30 | CC(C)(C)c1ccccc1OCC(=O)Nc1ccc(-c2ccccc2)cc1 [Compound 12] | −0.0947
31 | CC(C)(C)c1ccccc1OCC(=O)Nc1ccc(O)c(CO)c1 [Compound 47, 2-(2-(tert-butyl)phenoxy)-N-(4-hydroxyl-3-(hydroxymethyl)phenyl)acetamide] | −0.1983
32 | CC(C)(C)c1ccccc1OCC(=O)Nc1ccc(C#N)cc1 [Compound 32, 2-(2-(tert-butyl)phenoxy)-N-(4-cyanophenyl)acetamide] | −0.2396
33 | CC(=O)c1cc(NC(=O)COc2ccccc2C(C)(C)C)ccc1O [Compound 46, N-(3-acetyl-4-hydroxyphenyl)-2-(2-(tert-butyl)phenoxy)acetamide] | −0.1777
34 | CC(C)(C)c1ccccc1OCC(=O)Nc1ccc(O)cn1 [Compound 49, 2-(2-(tert-butyl)phenoxy)-N-(5-hydroxypyridin-2-yl)acetamide] | −0.0947
35 | COC(=O)c1cc(NC(=O)COc2ccccc2C(C)(C)C)ccc1O [Compound 45, 5-(2-(2-(tert-butyl)phenoxy)acetamido)-2-hydroxybenzoic acid methyl ester] | −0.3625
36 | CC(C)(C)c1ccccc1OCC(=O)Nc1ccccc1O [Compound 4, 2-(2-(tert-butyl)phenoxy)-N-(2-hydroxyphenyl)acetamide] | −0.1833

Other lines, results leading:

Row | Relative activation of NAMPT activity | SMILES
37 | 1.382 | COc1ccc(OCC(=O)Nc2ccc(O)cc2)c(C(C)(C)C)c1 [Compound 51]
38 | 1.488 | CC(C)(C)c1cc(O)ccc1OCC(=O)Nc1ccc(O)cc1 [Compound 52]
39 | −0.2123 | CC(C)(C)c1ccccc1OCC(=O)Nc1ccc(F)cc1 [Compound 9, 2-(2-(tert-butyl)phenoxy)-N-(4-fluorophenyl)acetamide]
40 | 0.1726 | Cc1ccc(C(C)(C)C)c(OCC(=O)Nc2ccc(O)cc2)c1 [Compound 55, 2-(2-(tert-butyl)-5-methylphenoxy)-N-(4-hydroxyphenyl)acetamide]
41 | −0.1236 | CC(C)(C)c1ccc(OCC(=O)Nc2ccc(O)cc2)cc1 [Compound 14, 2-(4-(tert-butyl)phenoxy)-N-(4-hydroxyphenyl)acetamide]
42 | 0.2733 | CC(C)(C)c1cccc(OCC(=O)Nc2ccc(O)cc2)c1 [Compound 13, 2-(3-(tert-butyl)phenoxy)-N-(4-hydroxyphenyl)acetamide]
43 | 0.327 | Cc1cccc(C(C)(C)C)c1OCC(=O)Nc1ccc(O)cc1 [Compound 53, 2-(2-(tert-butyl)-6-methylphenoxy)-N-(4-hydroxyphenyl)acetamide]
44 | −0.168 | Cc1cc(O)ccc1NC(=O)COc1ccccc1C(C)(C)C [Compound 43]
45 | −0.168 | COc1ccc(NC(=O)COc2ccccc2C(C)(C)C)cc1 [Compound 5, 2-(2-(tert-butyl)phenoxy)-N-(4-methoxyphenyl)acetamide]
46 | −0.1833 | CC(C)(C)c1ccccc1OCC(=O)Nc1ccc(O)c(Cl)c1 [Compound 42, 2-(2-(tert-butyl)phenoxy)-N-(3-chloro-4-hydroxyphenyl)acetamide]
47 | −0.1608 | Cc1ccc(NC(=O)COc2ccccc2C(C)(C)C)cc1 [Compound 10, 2-(2-(tert-butyl)phenoxy)-N-(p-tolyl)acetamide]
48 | −0.2198 | CC(C)(C)c1ccccc1OCC(=O)Nc1ccc(CO)cc1 [Compound 28, 2-(2-(tert-butyl)phenoxy)-N-(4-(hydroxymethyl)phenyl)acetamide]
49 | 0.8075 | CC(C)(C)c1ccccc1OCC(=O)Nc1ccc(N)cc1 [Compound 30, N-(4-aminophenyl)-2-(2-(tert-butyl)phenoxy)acetamide]
50 | −0.1366 | CC(C)(C)c1ccccc1OCC(=O)Nc1ccc(O)c(O)c1 [Compound 37, 2-(2-(tert-butyl)phenoxy)-N-(3,4-dihydroxyphenyl)acetamide]
51 | −0.1983 | CC(C)(C)c1ccccc1OCC(=O)Nc1ccc(Cl)cc1 [Compound 8, 2-(2-(tert-butyl)phenoxy)-N-(4-chlorophenyl)acetamide]
52 | −0.096 | CC(C)(C)c1ccccc1OCC(=O)Nc1ccc(S)cc1 [Compound 34, 2-(2-(tert-butyl)phenoxy)-N-(4-mercaptophenyl)acetamide]
53 | 0.02456 | CC(C)(C)c1cc(Br)cc(Br)c1OCC(=O)Nc1ccc(O)cc1 [Compound 60, 2-(2,4-dibromo-6-(tert-butyl)phenoxy)-N-(4-hydroxyphenyl)acetamide]
